# According to article PMC10385824, “Antiproliferative and Tubulin-Destabilising Effects of 3-(Prop-1-en-2-yl)azetidin-2-Ones and Related Compounds in MCF-7 and MDA-MB-231 Breast Cancer Cells” (Pharmaceuticals, 2023):
# Read-outs that look alike come from different tables or passages of the source.
# What was measured:
# [1] = tested on: MCF-7; assay: cells; conditions: Homo sapiens, MCF7, 48 h
# [2] = tested on: OVCAR-4; assay: NCI-60 SRB screen, ovarian cancer; type: cell-based, human; conditions: Homo sapiens; OVCAR-4; five dose 0.01–100 µM, 48 h; read-out: GI50
# [3] = tested on: COLO 205; assay: NCI-60 SRB screen, colon cancer; type: cell-based, human; conditions: Homo sapiens; COLO 205; five dose 0.01–100 µM, 48 h; read-out: GI50
# [4] = tested on: IGROV1; assay: NCI-60 SRB screen, ovarian cancer; type: cell-based, human; conditions: Homo sapiens, IGROV-1; IGROV1; five dose 0.01–100 µM, 48 h; read-out: GI50
# [5] = tested on: SR; assay: NCI-60 SRB screen, leukemia; type: cell-based, human; conditions: Homo sapiens, five dose 0.01–100 µM, 48 h, read-out: GI50
# [6] = tested on: NCI 60 human cancer cell line panel; assay: NCI 60 cell line screen (SRB), panel values; conditions: for CC50: read-out: Mean LC50; for IC (TGI (total growth inhibition)): read-out: Mean TGI
# [7] = tested on: LOX IMVI; assay: NCI-60 SRB screen, melanoma; type: cell-based, human; conditions: Homo sapiens, five dose 0.01–100 µM, 48 h, read-out: GI50
# [8] = tested on: SK-MEL-5; assay: NCI-60 SRB screen, melanoma; type: cell-based, human; conditions: Homo sapiens; SK-MEL-5; five dose 0.01–100 µM, 48 h; read-out: GI50
# [9] = tested on: MDA-MB-231/ATCC; assay: NCI-60 SRB screen, breast cancer; type: cell-based, human; conditions: Homo sapiens, 48 h; for GI50: MDA-MB-231/ATCC, five dose 0.01–100 µM, read-out: GI50
# [10] = tested on: PC-3; assay: NCI-60 SRB screen, prostate cancer; type: cell-based, human; conditions: Homo sapiens; PC-3; five dose 0.01–100 µM, 48 h; read-out: GI50
# [11] = tested on: HCT-2998; assay: NCI-60 SRB screen, colon cancer; type: cell-based, human; conditions: Homo sapiens; HCT-2998; five dose 0.01–100 µM, 48 h; read-out: GI50
# [12] = tested on: K-562; assay: NCI-60 SRB screen, leukemia; type: cell-based, human; conditions: Homo sapiens, K562, 48 h; read-out: GI50
# [13] = tested on: HOP-92; assay: NCI-60 SRB screen, non-small cell lung cancer; type: cell-based, human; conditions: Homo sapiens; HOP-92; five dose 0.01–100 µM, 48 h; read-out: GI50
# [14] = tested on: SK-MEL-28; assay: NCI-60 SRB screen, melanoma; type: cell-based, human; conditions: Homo sapiens; SK-MEL-28; five dose 0.01–100 µM, 48 h; read-out: GI50
# [15] = tested on: CAKI-1; assay: NCI-60 SRB screen, renal cancer; type: cell-based, human; conditions: Homo sapiens; CAKI-1; five dose 0.01–100 µM, 48 h; read-out: GI50
# [16] = tested on: NCI-H23; assay: NCI-60 SRB screen, non-small cell lung cancer; type: cell-based, human; conditions: Homo sapiens; NCI-H23; five dose 0.01–100 µM, 48 h; read-out: GI50
# [17] = tested on: KM12; assay: NCI-60 SRB screen, colon cancer; type: cell-based, human; conditions: Homo sapiens; KM12; five dose 0.01–100 µM, 48 h; read-out: GI50
# [18] = tested on: NCI-H552; assay: NCI-60 SRB screen, non-small cell lung cancer; type: cell-based, human; conditions: Homo sapiens; NCI-H552; five dose 0.01–100 µM, 48 h; read-out: GI50
# [19] = tested on: U251; assay: NCI-60 SRB screen, CNS cancer; type: cell-based, human; conditions: Homo sapiens, U-251; U251; five dose 0.01–100 µM, 48 h; read-out: GI50
# [20] = tested on: SK-OV-3; assay: NCI-60 SRB screen, ovarian cancer; type: cell-based, human; conditions: Homo sapiens; SK-OV-3; five dose 0.01–100 µM, 48 h; read-out: GI50
# [21] = tested on: SF539; assay: NCI-60 SRB screen, CNS cancer; type: cell-based, human; conditions: Homo sapiens, SF-539; SF539; five dose 0.01–100 µM, 48 h; read-out: GI50
# [22] = tested on: MOLT-4; assay: NCI-60 SRB screen, leukemia; type: cell-based, human; conditions: Homo sapiens; MOLT-4; five dose 0.01–100 µM, 48 h; read-out: GI50
# [23] = tested on: UO-31; assay: NCI-60 SRB screen, renal cancer; type: cell-based, human; conditions: Homo sapiens; UO-31; five dose 0.01–100 µM, 48 h; read-out: GI50
# [24] = tested on: EKVX; assay: NCI-60 SRB screen, non-small cell lung cancer; type: cell-based, human; conditions: Homo sapiens, five dose 0.01–100 µM, 48 h, read-out: GI50
# [25] = tested on: NCI-H226; assay: NCI-60 SRB screen, non-small cell lung cancer; type: cell-based; conditions: Homo sapiens; NCI-H226; five dose 0.01–100 µM, 48 h; read-out: GI50
# [26] = tested on: SW-620; assay: NCI-60 SRB screen, colon cancer; type: cell-based, human; conditions: Homo sapiens; SW-620; five dose 0.01–100 µM, 48 h; read-out: GI50
# [27] = tested on: SN12C; assay: NCI-60 SRB screen, renal cancer; type: cell-based, human; conditions: Homo sapiens, five dose 0.01–100 µM, 48 h, read-out: GI50
# [28] = tested on: TK-10; assay: NCI-60 SRB screen, renal cancer; type: cell-based, human; conditions: Homo sapiens; TK-10; five dose 0.01–100 µM, 48 h; read-out: GI50
# [29] = tested on: HCT-15; assay: NCI-60 SRB screen, colon cancer; type: cell-based, human; conditions: Homo sapiens; HCT-15; five dose 0.01–100 µM, 48 h; read-out: GI50
# [30] = tested on: A549/ATCC; assay: NCI-60 SRB screen, non-small cell lung cancer; type: cell-based, human; conditions: Homo sapiens; A549/ATCC; five dose 0.01–100 µM, 48 h; read-out: GI50
# [31] = tested on: ACHN; assay: NCI-60 SRB screen, renal cancer; type: cell-based, human; conditions: Homo sapiens, five dose 0.01–100 µM, 48 h, read-out: GI50
# [32] = tested on: A498; assay: NCI-60 SRB screen, renal cancer; type: cell-based, human; conditions: Homo sapiens; A498; five dose 0.01–100 µM, 48 h; read-out: GI50
# [33] = tested on: SNB-19; assay: NCI-60 SRB screen, CNS cancer; type: cell-based, human; conditions: Homo sapiens; SNB-19; five dose 0.01–100 µM, 48 h; read-out: GI50
# [34] = Homo sapiens, 60 cell, read-out: Mean GI50, mean over all NCI 60 cell lines
# [35] = read-out: Mean GI50, mean over all NCI 60 cell lines
Structure (SMILES),GI50 [1] [nM],GI50 [2] [nM],GI50 [3] [nM],GI50 [4] [nM],GI50 [5] [nM],"GI50 [6, 34] [nM]","CC50 ([6]; Homo sapiens, 60 cell) [nM]","IC (TGI (total growth inhibition)) ([6]; Homo sapiens, 60 cell) [nM]","GI50 [6, 35] [nM]",GI50 [7] [nM],GI50 [8] [nM],GI50 [9] [nM],GI50 [10] [nM],GI50 [11] [nM],GI50 [12] [nM],GI50 [13] [nM],GI50 [14] [nM],GI50 [15] [nM],GI50 [16] [nM],GI50 [17] [nM],other results
"C=C(C)C1C(=O)N(c2cc(OC)c(OC)c(OC)c2)C1c1ccc(OC)c(N)c1 (stereo not drawn) [9s, 4-(3-Amino-4-methoxyphenyl)-1-(3,4,5-trimethoxyphenyl)-3-(prop-1-en-2-yl)azetidin-2-one]",32.4,40.7,19.7,35.7,30.4,< 91.2,75900,22400,55,32.5,23.2,31.5,37.9,29.1,38.3,43.7,> 100000,49.1,25.8,23.1,GI50 [18]: 14.6 nM; GI50 [19]: 37.5 nM; GI50 [20]: 31.7 nM; GI50 [21]: 40.2 nM; GI50 [22]: 37.2 nM; GI50 [23]: 74 nM; GI50 [24]: 587 nM; GI50 [25]: 43.5 nM; GI50 [26]: 39.4 nM; GI50 [27]: 62.9 nM; GI50 [28]: 64.9 nM; GI50 [29]: 41.6 nM; GI50 [30]: 41.5 nM; GI50 [31]: 62 nM; GI50 [32]: 23.4 nM
"C=CCC1C(=O)N(c2cc(OC)c(OC)c(OC)c2)C1c1ccc(OC)c(O)c1 (stereo not drawn) [10p, 4-(3-Hydroxy-4-methoxyphenyl)-1-(3,4,5-trimethoxyphenyl)-3-allylazetidin-2-one]",35.3,39.7,563,44.8,31.4,< 91.2,93300,35500,61.7,33.9,24.9,24,40.3,29.9,43.1,23.8,76200,44,30.7,22.4,"IC50 ([9]; MDA-MB-231, obtained from NCI, five concentrations 0.01–100 μM, read-out: Antiproliferative Activity IC50): 27.4 nM; GI50 [33]: 58.9 nM; GI50 [18]: 15.1 nM; GI50 [19]: 31.7 nM; GI50 [20]: 36.6 nM; GI50 [21]: 38.2 nM; GI50 [22]: 40.8 nM; GI50 [23]: 85.8 nM; GI50 [24]: 76.4 nM; GI50 [25]: 56 nM; GI50 [26]: 42.2 nM; GI50 [27]: 29.8 nM; GI50 [28]: 80.2 nM; GI50 [29]: 36.7 nM; GI50 [30]: 37.3 nM; GI50 [31]: 53.2 nM; GI50 [32]: 17.5 nM"
